Experimental data reported in US6448475B1, “Manipulation of tocopherol levels in transgenic plants by transformation with a synechocystis 2-methyl-6-phytylplastoquinol/2-methyl-6-solanylplastoquinol-9 methyltransferase” (The University and Community College System of Nevada, priority 1998, dated 2002).

Columns and labels:
[1] = In vitro 2-methyl-6-solanylplastoquinol methyltransferase assay of E. coli expressed SLL0418; type: biochemical, Synechocystis; settings: E. coli extract
Excerpt: (§1) A second approach to characterizing the Synechocystis genes and proteins involved in tocopherol biosynthesis involved the expression and biochemical analysis of these genes in E. coli. The Synechocystis SLL0418 gene sequence was subcloned from pSLL0418-1 as a Nde1/Hind3 fragment into the Nde1 and Hind3 sites of the E. coli expression vector, pET30B. The resulting plasmid construct was designated p041798 and was transformed into the E. coli strain BL21(DE3)pLysS. Protein expression was induced with 1 mM isopropylthio-b-galactoside (IPTG) in the cells transformed with p041798 and cells transformed with the empty pET30B vector. Induced cultures were grown for 3 hours at 28° C. in a shaking incubator after which the cells were harvested by centrifugation at 8,000 g for 10 minutes at 4° C. and stored at […] The cell pellets were resuspended in 50 mM Tris-HCl pH 8.0, 5 mM DTT, 1 mM PMSF and homogenized with four 10 second burst with a sonicator. Triton X 100 was then added to a final concentration of 1% and the mixture was incubated on ice for 30 minutes. The insoluble material was then removed by centrifugation at 40,000 g for 30 minutes and the supernatant was saved for methyltransferase assays.
The 2-methyl-6-solanylplastoquinol substrate was purified from Iris bulbs. One hundred gm of iris bulbs were homogenized in 500 mL acetone. […]

[2] = In vitro 2-methyl-6-phytylplastoquinol methyltransferase assay of E. coli expressed SLL0418; type: biochemical, Synechocystis; settings: E. coli extract
Excerpt: as §1
A mixture of 6 different isomers of methylphytylplastoquinone was synthesized as described by Henry et al. (1987) Biochem J 242: 367-373. […]

2-methyl-6-phytylplastoquinol/2-methyl-6-solanylplastoquinol-9 methyltransferase [SLL0418]
methylation of 2-methyl-6-solanylplastoquinol to form 2,3-dimethylsolanylplastoquinol ([1]; result in words): able to methylate | amount of 14C labeled 2,3-dimethylsolanylplastoquinol product produced ([1]; substrate 2-methyl-6-solanylplastoquinol, [14C-methyl]-S-adenosylmethionine, 30 minutes, room temperature): 174 CPM | methylation of 2-methyl-6-phytylplastoquinol to form 2,3-dimethylphytlyplastoquinol ([2]; result in words): able to methylate | amount of 14C labeled 2,3-dimethyl-6-phytylplastoquinol product produced ([2]; substrate 2-methyl-6-phytylplastoquinol, [14C-methyl]-S-adenosylmethionine, 30 minutes, room temperature): 484 CPM
